Source: US7851467B2, “Carbamate compounds as 5-HT4 receptor agonists” (Theravance, Inc., priority 2005, dated 2010)

Biological target: T1, human 5-HT3A receptor (Homo sapiens, UniProt P46098)
T1 construct: host or cells: HEK-293
T1 sequence (P46098 24-478): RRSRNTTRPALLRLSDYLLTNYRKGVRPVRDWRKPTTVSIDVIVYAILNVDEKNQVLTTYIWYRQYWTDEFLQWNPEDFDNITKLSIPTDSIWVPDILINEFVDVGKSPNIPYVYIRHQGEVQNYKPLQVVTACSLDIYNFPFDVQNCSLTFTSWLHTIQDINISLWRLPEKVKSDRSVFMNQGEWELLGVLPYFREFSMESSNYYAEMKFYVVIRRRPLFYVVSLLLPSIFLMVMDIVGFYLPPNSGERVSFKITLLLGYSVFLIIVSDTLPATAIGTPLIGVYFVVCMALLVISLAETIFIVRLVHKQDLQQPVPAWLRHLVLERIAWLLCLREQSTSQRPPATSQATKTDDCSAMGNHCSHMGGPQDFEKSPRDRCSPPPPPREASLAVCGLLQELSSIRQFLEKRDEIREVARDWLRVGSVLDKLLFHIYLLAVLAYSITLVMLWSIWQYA
Assay: Radioligand binding assay on 5-HT3A human receptors: determination of receptor subtype selectivity
Settings: [3H]-GR65630 at 0.50 nM for 5-HT3A
Protocol: Assay 2: Radioligand Binding Assay on 5-HT3A Human Receptors: Determination of Receptor Subtype Selectivity
a. Membrane Preparation 5-HT3A
HEK-293 (human embryonic kidney) cells stably-transfected with human 5-HT3A receptor cDNA were obtained from Dr. Michael Bruess (University of Bonn, […]) (Bmax=˜[…] protein, as determined using [^3H]-GR65630 membrane radioligand binding assay). […]
Radioligand binding assays were performed in 96-well polypropylene assay plates in a total assay volume of 200 μL containing 1.5-2 μg membrane protein in 50 mM HEPES pH 7.4, containing 0.025% BSA assay buffer. […] Non-specific binding was determined in the presence of 10 μM unlabeled MDL72222. […] Filter plates were washed three times with filtration buffer (ice-cold 50 mM HEPES, pH7.4) to remove unbound radioactivity. Plates were dried, 35 μL Microscint-20 liquid scintillation fluid (Packard BioScience Co., Meriden, Conn.) was added to each well and plates were counted in a Packard Topcount liquid scintillation counter (Packard BioScience Co., Meriden, Conn.).
Binding data were analyzed using the non-linear regression procedure described above to determine Ki values. The BOTTOM (curve minimum) was fixed to the value for nonspecific binding, as determined in the presence of 10 μM MDL72222. The quantity [L] in the Cheng-Prusoff equation was defined as the concentration [^3H]-GR65630. […]

## CC(C)n1c(=O)n(C(=O)N[C@H]2C[C@H]3CC[C@@H](C2)N3CCCOC(=O)N2CCN(C(=O)C3CCCO3)CC2)c2ccccc21 (stereo partly drawn) [Example 1, 4-(tetrahydrofuran-2-carbonyl)piperazine-1-carboxylic acid 3-{(1S,3R,5R)-3-[(3-isopropyl-2-oxo-2,3-dihydrobenzoimidazole-1-carbonyl)amino]-8-aza-bicyclo[3.2.1]oct-8-yl}propyl ester]
  5-HT4/5-HT3 receptor subtype selectivity, ratio Ki(5-HT3A)/Ki(5-HT4(c)): 160
